*1 amine or outer side, *2 acyl side, *3 side chain or, on linkers, in order; H or OH if unused. Where a SMILES comes first, the peptide text is derived from it. Side-chain parts run from the residue outwards. [ ]: non-standard residue; d: D form. The star is where a group is joined. Isobutyryl(2-(3-CN-5-F-Ph)) = CC(C)(C(=O)*)c1cc(F)cc(C#N)c1; C20 diacid = O=C(O)CCCCCCCCCCCCCCCCCCC(=O)*; γGlu = O=C(O)[C@H](CCC(=O)[*:2])N[*:1]; X37 = CC(C)(C(=O)*)c1cc(F)ccc1F; X26 = O=C(C1(c2ccccc2)CCCC1)*; AEEA = NCCOCCOCC(=O)O; Aib = CC(C)(N)C(=O)O; CO = O=C([*:1])[*:2]; βAla = NCCC(=O)O; NHPr = CCCN*
How the values were obtained:
Type in all cases: cell-based
GLP-1 receptor [1] = target: T1, GLP-1 receptor (Homo sapiens, UniProt P43220); assay: HitHunter cAMP assay, GLP-1 receptor; settings: for EC50: CHO cells stably expressing human GLP-1 receptor, cAMP accumulation, 30 min, read-out: EC50 GLP-1R; for Emax: CHO cells, cAMP, normalized to maximum signal from GLP-1 (high) and DMSO (low), read-out: Emax GLP-1R
T1 sequence (P43220 24-463): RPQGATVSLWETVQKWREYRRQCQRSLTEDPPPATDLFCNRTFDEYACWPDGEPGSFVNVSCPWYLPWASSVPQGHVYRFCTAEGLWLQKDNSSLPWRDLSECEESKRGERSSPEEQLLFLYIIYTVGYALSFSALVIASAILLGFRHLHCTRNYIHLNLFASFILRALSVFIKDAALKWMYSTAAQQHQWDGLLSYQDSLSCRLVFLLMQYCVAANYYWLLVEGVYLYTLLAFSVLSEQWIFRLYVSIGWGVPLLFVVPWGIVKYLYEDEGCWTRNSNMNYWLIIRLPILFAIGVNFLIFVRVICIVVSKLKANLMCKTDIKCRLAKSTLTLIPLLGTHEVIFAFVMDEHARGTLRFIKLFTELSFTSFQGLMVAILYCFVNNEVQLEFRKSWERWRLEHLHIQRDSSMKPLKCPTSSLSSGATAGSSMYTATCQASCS

GIP receptor [2] = target: T2, GIP receptor (Homo sapiens, UniProt P48546); assay: HitHunter cAMP assay, GIP receptor; settings: for EC50: CHO cells stably expressing GIP receptor, cAMP accumulation, 30 min, read-out: EC50 GIP-1R; for Emax: CHO cells, cAMP, normalized to maximum signal from GIP (high) and DMSO (low), read-out: Emax GIP-1R
T2 sequence (P48546 22-466): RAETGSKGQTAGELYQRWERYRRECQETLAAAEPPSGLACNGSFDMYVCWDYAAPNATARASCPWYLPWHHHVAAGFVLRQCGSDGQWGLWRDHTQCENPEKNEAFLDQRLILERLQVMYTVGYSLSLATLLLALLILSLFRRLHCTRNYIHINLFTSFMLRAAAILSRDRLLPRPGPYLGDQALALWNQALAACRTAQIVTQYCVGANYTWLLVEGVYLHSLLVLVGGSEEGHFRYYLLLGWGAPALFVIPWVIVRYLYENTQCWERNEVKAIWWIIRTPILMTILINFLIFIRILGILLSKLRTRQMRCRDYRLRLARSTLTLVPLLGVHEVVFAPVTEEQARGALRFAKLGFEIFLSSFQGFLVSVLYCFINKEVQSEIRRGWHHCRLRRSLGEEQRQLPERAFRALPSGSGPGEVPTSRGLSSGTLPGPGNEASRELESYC

GIP receptor [3] = target: T2, GIP receptor; assay: PathHunter β-arrestin assay, GIP receptor; parameters: host or cells: PathHunter CHO-K1 GIPR β-Arrestin Cell Line; settings: β-arrestin-2 recruitment, PathHunter CHO-K1 GIPR β-Arrestin Cell Line, 90 min at 37° C.; normalized to GIP; read-out: GIPR β Arrestin EC50
GLP-1 receptor [4] = target: T1, GLP-1 receptor; assay: PathHunter β-arrestin assay, GLP-1 receptor; parameters: host or cells: PathHunter CHO-K1 GLP1R β-Arrestin Cell Line; settings: β-arrestin-2 recruitment, PathHunter CHO-K1 GLP1R β-Arrestin Cell Line, 90 min at 37° C.; normalized to GLP-1; read-out: GLP-1R β Arrestin EC50

Structure (SMILES) | EC50 (GLP-1 receptor [1]) | Emax (GLP-1 receptor [1]) | EC50 (GIP receptor [2]) | Emax (GIP receptor [2]) | EC50 (GIP receptor [3]) | EC50 (GLP-1 receptor [4])
CCCNC(=O)NC(C)(C)C(=O)NCCC(=O)N[C@@H](CCC(=O)O)C(=O)NCC(=O)N[C@H](C(=O)N[C@@H](Cc1ccccc1)C(=O)N[C@H](C(=O)N[C@@H](CO)C(=O)N[C@@H](CC(=O)O)C(=O)N[C@@H](Cc1ccc(O)cc1)C(=O)N[C@@H](CO)C(=O)N[C@H](C(=O)NC(C)(C)C(=O)N[C@@H](CC(C)C)C(=O)N[C@@H](CC(=O)O)C(=O)N[C@@H](CCCCN)C(=O)N[C@H](C(=O)N[C@@H](C)C(=O)N[C@@H](CCC(N)=O)C(=O)N[C@@H](CCCCNC(=O)COCCOCCNC(=O)COCCOCCNC(=O)CC[C@H](NC(=O)CCCCCCCCCCCCCCCCCCC(=O)O)C(=O)O)C(=O)N[C@@H](C)C(=O)N[C@@H](Cc1ccccc1)C(=O)N[C@H](C(=O)N[C@@H](CCC(N)=O)C(=O)N[C@@H](Cc1c[nH]c2ccccc12)C(=O)N[C@@H](CC(C)C)C(=O)N[C@H](C(=O)N[C@@H](C)C(=O)NCC(=O)NCC(=O)N1CCC[C@H]1C(=O)N[C@@H](CO)C(=O)N[C@@H](CO)C(=O)NCC(=O)N[C@@H](C)C(=O)N1CCC[C@H]1C(=O)N1CCC[C@H]1C(=O)N1CCC[C@H]1C(=O)N[C@@H](CO)C(N)=O)[C@@H](C)CC)C(C)C)[C@@H](C)CC)[C@@H](C)CC)[C@@H](C)O)[C@@H](C)O [Compound 281] ({NHPr-CO}-[Aib][βAla]EGTFTSDYSI[Aib]LDKIAQK([AEEA-AEEA-γGlu-C20 diacid])AFVQWLIAGGPSSGAPPPS-NH2) | 0.1 to 1 nM | 95% | 1 to 10 nM | 108% | > 1000 nM | > 1000 nM
CC[C@H](C)[C@H](NC(=O)[C@H](CCCCN)NC(=O)[C@H](CC(=O)O)NC(=O)[C@H](CC(C)C)NC(=O)C(C)(C)NC(=O)[C@@H](NC(=O)[C@H](CO)NC(=O)[C@H](Cc1ccc(O)cc1)NC(=O)[C@H](CC(=O)O)NC(=O)[C@H](CO)NC(=O)[C@@H](NC(=O)[C@H](Cc1ccccc1)NC(=O)[C@@H](NC(=O)CNC(=O)[C@H](CCC(=O)O)NC(=O)CCNC(=O)C(C)(C)c1cc(F)cc(C#N)c1)[C@@H](C)O)[C@@H](C)O)[C@@H](C)CC)C(=O)N[C@@H](C)C(=O)N[C@@H](CCC(N)=O)C(=O)N[C@@H](CCCCNC(=O)COCCOCCNC(=O)COCCOCCNC(=O)CC[C@H](NC(=O)CCCCCCCCCCCCCCCCCCC(=O)O)C(=O)O)C(=O)N[C@@H](C)C(=O)N[C@@H](Cc1ccccc1)C(=O)N[C@H](C(=O)N[C@@H](CCC(N)=O)C(=O)N[C@@H](Cc1c[nH]c2ccccc12)C(=O)N[C@@H](CC(C)C)C(=O)N[C@@H](CC(C)C)C(=O)N[C@@H](C)C(=O)NCC(=O)NCC(=O)N1CCC[C@H]1C(=O)N[C@@H](CO)C(=O)N[C@@H](CO)C(=O)NCC(=O)N[C@@H](C)C(=O)N1CCC[C@H]1C(=O)N1CCC[C@H]1C(=O)N1CCC[C@H]1C(=O)N[C@@H](CO)C(N)=O)C(C)C [Compound 190] ({Isobutyryl(2-(3-CN-5-F-Ph))-βAla}-EGTFTSDYSI[Aib]LDKIAQK([AEEA-AEEA-γGlu-C20 diacid])AFVQWLLAGGPSSGAPPPS-NH2) | 1 to 10 nM | 98% | 1 to 10 nM | 100% | > 1000 nM | > 1000 nM
CC[C@H](C)[C@H](NC(=O)[C@H](CC(C)C)NC(=O)[C@H](Cc1c[nH]c2ccccc12)NC(=O)[C@H](CCC(N)=O)NC(=O)[C@@H](NC(=O)[C@H](Cc1ccccc1)NC(=O)[C@H](C)NC(=O)[C@H](CCCCNC(=O)COCCOCCNC(=O)COCCOCCNC(=O)CC[C@H](NC(=O)CCCCCCCCCCCCCCCCCCC(=O)O)C(=O)O)NC(=O)[C@H](CCC(N)=O)NC(=O)[C@H](C)NC(=O)[C@@H](NC(=O)[C@H](CCCCN)NC(=O)[C@H](CC(=O)O)NC(=O)[C@H](CC(C)C)NC(=O)C(C)(C)NC(=O)[C@@H](NC(=O)[C@H](CO)NC(=O)[C@H](Cc1ccc(O)cc1)NC(=O)[C@H](CC(=O)O)NC(=O)[C@H](CO)NC(=O)[C@@H](NC(=O)[C@H](Cc1ccccc1)NC(=O)[C@@H](NC(=O)CNC(=O)[C@H](CCC(=O)O)NC(=O)CCNC(=O)C(C)(C)c1cc(F)ccc1F)[C@@H](C)O)[C@@H](C)O)[C@@H](C)CC)[C@@H](C)CC)C(C)C)C(=O)N[C@@H](C)C(=O)NCC(=O)NCC(=O)N1CCC[C@H]1C(=O)N[C@@H](CO)C(=O)N[C@@H](CO)C(=O)NCC(=O)N[C@@H](C)C(=O)N1CCC[C@H]1C(=O)N1CCC[C@H]1C(=O)N1CCC[C@H]1C(=O)N[C@@H](CO)C(N)=O [Compound 146] ({X37-βAla}-EGTFTSDYSI[Aib]LDKIAQK([AEEA-AEEA-γGlu-C20 diacid])AFVQWLIAGGPSSGAPPPS-NH2) | 0.1 to 1 nM | 102% | 1 to 10 nM | 104% | < 1000 nM | > 1000 nM
CC[C@H](C)[C@H](NC(=O)[C@H](CO)NC(=O)[C@H](Cc1ccc(O)cc1)NC(=O)[C@H](CC(=O)O)NC(=O)[C@H](CO)NC(=O)[C@@H](NC(=O)[C@H](Cc1ccccc1)NC(=O)[C@@H](NC(=O)CNC(=O)[C@H](CCC(=O)O)NC(=O)CCNC(=O)C(C)(C)c1cc(F)cc(C#N)c1)[C@@H](C)O)[C@@H](C)O)C(=O)N[C@@H](Cc1ccc(O)cc1)C(=O)N[C@@H](CC(C)C)C(=O)N[C@@H](CC(=O)O)C(=O)N[C@@H](CCCCN)C(=O)N[C@@H](CCC(N)=O)C(=O)N[C@@H](C)C(=O)N[C@@H](C)C(=O)NC(C)(C)C(=O)N[C@@H](CCC(=O)O)C(=O)N[C@@H](Cc1ccccc1)C(=O)N[C@H](C(=O)N[C@@H](CC(N)=O)C(=O)N[C@@H](Cc1c[nH]c2ccccc12)C(=O)N[C@@H](CC(C)C)C(=O)N[C@@H](CC(C)C)C(=O)N[C@@H](C)C(=O)NCC(=O)NCC(=O)N1CCC[C@H]1C(=O)N[C@@H](CO)C(=O)N[C@@H](CO)C(=O)NCC(=O)N[C@@H](C)C(=O)N1CCC[C@H]1C(=O)N1CCC[C@H]1C(=O)N1CCC[C@H]1C(=O)N[C@@H](CO)C(=O)N[C@@H](CCCCNC(=O)COCCOCCNC(=O)COCCOCCNC(=O)CC[C@H](NC(=O)CCCCCCCCCCCCCCCCCCC(=O)O)C(=O)O)C(N)=O)C(C)C [Compound 187] | 1 to 10 nM | 95% | 10 to 100 nM | 95% | > 1000 nM | > 1000 nM
CC[C@H](C)[C@H](NC(=O)[C@H](CC(C)C)NC(=O)[C@H](Cc1c[nH]c2ccccc12)NC(=O)[C@H](CCC(N)=O)NC(=O)[C@@H](NC(=O)[C@H](Cc1ccccc1)NC(=O)[C@H](C)NC(=O)[C@H](CCCCNC(=O)COCCOCCNC(=O)COCCOCCNC(=O)CC[C@H](NC(=O)CCCCCCCCCCCCCCCCCCC(=O)O)C(=O)O)NC(=O)[C@H](CCC(N)=O)NC(=O)[C@H](C)NC(=O)[C@@H](NC(=O)[C@H](CCCCN)NC(=O)[C@H](CC(=O)O)NC(=O)[C@H](CC(C)C)NC(=O)C(C)(C)NC(=O)[C@@H](NC(=O)[C@H](CO)NC(=O)[C@H](Cc1ccc(O)cc1)NC(=O)[C@H](CC(=O)O)NC(=O)[C@H](CO)NC(=O)[C@@H](NC(=O)[C@H](Cc1ccccc1)NC(=O)[C@@H](NC(=O)CNC(=O)[C@H](CCC(=O)O)NC(=O)CCNC(=O)C1(c2ccccc2)CCCC1)[C@@H](C)O)[C@@H](C)O)[C@@H](C)CC)[C@@H](C)CC)C(C)C)C(=O)N[C@@H](C)C(=O)NCC(=O)NCC(=O)N1CCC[C@H]1C(=O)N[C@@H](CO)C(=O)N[C@@H](CO)C(=O)NCC(=O)N[C@@H](C)C(=O)N1CCC[C@H]1C(=O)N1CCC[C@H]1C(=O)N1CCC[C@H]1C(=O)N[C@@H](CO)C(N)=O [Compound 236] ({X26-βAla}-EGTFTSDYSI[Aib]LDKIAQK([AEEA-AEEA-γGlu-C20 diacid])AFVQWLIAGGPSSGAPPPS-NH2) | 0.1 to 1 nM | 127% | 1 to 10 nM | 114% | > 1000 nM | > 1000 nM

From patent US12281149B2, “Modulators of G-protein coupled receptors” (priority 2021, dated 2025)
